Assay results as given in patent US11591326B2, “Inhibitors of protein arginine methyltransferase 5 (PRMT5), pharmaceutical products thereof, and methods thereof” (PHARMABLOCK SCIENCES (NANJING), INC., priority 2018, dated 2023).
Read-outs that look alike come from different tables or passages of the source.

How the values were obtained:
[1] = biological target: Human recombinant PRMT5 in complex with human recombinant MEP50 (Homo sapiens (Human), UniProt O14744); test: PRMT5/MEP50 AlphaLISA enzyme inhibitory assay; format: biochemical; conditions: PRMT5/MEP50 25 nM, SAM 10 μM, Biotin-H4 peptide 30 nM
In short: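 Insect-cell-expressed PRMT5/MEP50 (25 nM) preincubated with SAM (10 μM), then 15 min with compound in pH 8.5 Tris buffer, 1% DMSO. Biotin-H4(1–21) peptide (30 nM) reaction ran 120 min at room temperature. H4R3 methylation detected by AlphaLISA; IC50 from four-parameter sigmoidal fit.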

MDA-MB-231 = test: Breast cancer panel proliferation inhibition, MDA-MB-231; format: cell-based; conditions: Homo sapiens
Description: (§1) Inhibitory ability of compounds synthesized on the proliferation of three panels of cancer cell lines, including 5 breast cancer, 6 liver cancer, and 3 lung cancer cell lines were evaluated. Exponentially growing cells were seeded in the media of choice at various cell densities in 384-well plates with 20 ul per well and incubated overnight at 37° C., 5% CO2 incubator. Compounds were prepared as 10-point, 3-fold serial dilutions in DMSO, beginning at 6 mM. 1 μl of DMSO solutions from the compound stock plates were added to 99 ul of cell media (final top concentration of compound in the assay was 30 uM and the final concentration of DMSO was 0.5%). 20 μL of compound solutions in media were added to each well of plates with cells seeded. After adding compound solutions, assay plates were incubated for 8 and 12 days, respectively, at 37° C., 5% CO2. During this incubation period, cell media was changed every 4 days. After removing old media from cell plates, 40 ul of media with testing compounds dissolved, which were prepared by adding 1 ul of compound DMSO serial solutions to 199 ul of cell media, were added to the assay plates with the same layout as they were initially prepared. After 8 or 12 days, cell viability was measured using the CellTiter-Glo assay kit from Promega (Madison, Wis., USA) by quantitating the ATP present in the cell cultures. 20 μL of CellTiter-Glo reagent was added to each well of the cell plates. Luminescence was read after 10 minute of incubation with the Envision multiple plate reader from PerkinElmer (Waltham, Mass., USA). The concentrations of compounds inhibiting cell viability by 50% (IC50 values) were determined using a sigmoidal dose-response model (variable slopes, four parameters) in Prism 7 (La Jolla, Calif., USA).

SNU475 = test: Liver cancer panel proliferation inhibition, SNU475; format: cell-based; conditions: Homo sapiens
Description: as §1

Z-138 tumor cells = test: Mantle cell lymphoma (MCL) Z-138 xenograft efficacy study; format: in vivo, CB-17 female SCID mice; conditions: administered orally BID for 21 days
Description: For the in vivo efficacy studies, CB-17 female SCID mice (19-21 g; 10-12 weeks) were purchased from Shanghai SLAC laboratory animal CO. LTD. Each mouse was inoculated subcutaneously at the right flank with Z-138 tumor cells (5×10^6 cells/mouse, 50% Matrigel) in 0.2 mL of a mixture of base media and Matrigel (RPMI:Matrigel, 1:1) for tumor development. The treatments were started when the mean tumor size reached 121.55 mm^3, which was 11 days after inoculation. Mice were assigned into groups using a randomized block design. Testing compounds or vehicle (5% DMSO+45% PEG400+50% H2O) was administered orally BID for 21 days. Body weights were measured three times per week for the whole duration of the study. Tumor size was measured at the same schedule in two dimensions using a caliper, and the volume was expressed in cubic millimeters. Animals were euthanized 6 h after the final dose on day 21, at which time tumors were collected for analysis.

[2] = 192 h, MDA-MB-231, 8 days, read-out: IC50 (μM) 8 days
[3] = 288 h, MDA-MB-231, 12 days, read-out: IC50 (μM) 12 days
[4] = SNU-475, 192 h, SNU475, 8 days, read-out: IC50 (μM) 8 days
[5] = SNU-475, 288 h, SNU475, 12 days, read-out: IC50 (μM) 12 days

Human recombinant PRMT5 in complex with human recombinant MEP50, sequence (O14744 whole entry): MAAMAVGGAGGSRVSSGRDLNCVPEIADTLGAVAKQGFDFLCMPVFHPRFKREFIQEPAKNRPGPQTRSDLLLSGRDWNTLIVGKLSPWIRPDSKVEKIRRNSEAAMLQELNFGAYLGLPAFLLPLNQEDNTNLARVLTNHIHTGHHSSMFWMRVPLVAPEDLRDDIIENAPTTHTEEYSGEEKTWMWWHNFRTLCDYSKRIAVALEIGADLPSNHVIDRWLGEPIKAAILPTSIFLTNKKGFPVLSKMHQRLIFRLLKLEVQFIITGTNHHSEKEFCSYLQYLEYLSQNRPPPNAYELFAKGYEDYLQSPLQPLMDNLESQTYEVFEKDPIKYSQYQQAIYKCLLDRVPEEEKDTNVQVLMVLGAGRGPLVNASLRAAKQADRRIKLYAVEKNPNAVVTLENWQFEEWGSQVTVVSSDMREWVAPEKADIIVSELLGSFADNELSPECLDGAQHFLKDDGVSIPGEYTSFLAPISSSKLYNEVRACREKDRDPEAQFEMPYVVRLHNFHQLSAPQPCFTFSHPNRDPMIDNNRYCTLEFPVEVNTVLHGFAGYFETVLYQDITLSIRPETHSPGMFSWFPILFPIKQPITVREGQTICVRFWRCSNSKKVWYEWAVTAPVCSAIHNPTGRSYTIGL
Human recombinant PRMT5 in complex with human recombinant MEP50, sequence (Q9BQA1 whole entry partner): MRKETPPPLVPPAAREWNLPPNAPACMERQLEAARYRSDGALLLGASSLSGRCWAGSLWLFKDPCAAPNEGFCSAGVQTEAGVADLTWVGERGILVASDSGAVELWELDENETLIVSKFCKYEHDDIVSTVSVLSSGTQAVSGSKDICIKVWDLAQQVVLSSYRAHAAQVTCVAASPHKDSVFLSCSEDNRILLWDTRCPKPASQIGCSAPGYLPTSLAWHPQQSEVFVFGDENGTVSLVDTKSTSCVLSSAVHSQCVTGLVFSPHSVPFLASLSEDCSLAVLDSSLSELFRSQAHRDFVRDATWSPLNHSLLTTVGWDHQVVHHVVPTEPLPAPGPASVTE

SMILES	IC50 [1]	IC50 (MDA-MB-231; [2])	IC50 (MDA-MB-231; [3])	IC50 (SNU475; [4])	IC50 (SNU475; [5])	result in Z-138 xenograft efficacy studies (tumor volume change, FIG. 1) (Z-138 tumor cells)
CC(=O)N1CCC(Nc2ccc3c(c2)C(=O)N(C[C@H](O)CN2CCc4ccccc4C2)CC3)CC1 [Compound 24a, (R)-7-((1-acetylpiperidin-4-yl)amino)-2-(3-(3,4-dihydroisoquinolin-2(1H)-yl)-2-hydroxypropyl)-3,4-dihydroisoquinolin-1(2H)-one]	0.013 µM	0.49 µM	0.075 µM	0.21 µM	0.32 µM	–
CC(=O)N1CCC(Nc2ccc3c(c2)C(=O)N(C[C@H](O)CN2CCc4ccccc4C2)CCO3)CC1 [Compound 52a, (R)-7-((1-acetylpiperidin-4-yl)amino)-4-(3-(3,4-dihydroisoquinolin-2(1H)-yl)-2-hydroxypropyl)-3,4-dihydrobenzo[f][1,4]oxazepin-5(2H)-one]	0.08 µM	0.17 µM	0.064 µM	0.29 µM	0.35 µM	promising result
CC(=O)N1CCC(Nc2cc(C(=O)NC[C@H](O)CN3CCc4ccccc4C3)ncn2)CC1 [Compound C3, reference compound]	–	0.7 µM	0.096 µM	0.66 µM	0.86 µM	–
